Measurements as given in ChEMBL document CHEMBL4813945, “Discovery and development of novel pyrimidine and pyrazolo/thieno-fused pyrimidine derivatives as potent and orally active inducible nitric oxide synthase dimerization inhibitor with efficacy for arthritis” (Eur J Med Chem, 2021).

Legend:
L02 [1] = experiment: Cytotoxicity against human L02 cells assessed as cell viability by MTT assay; format: cell-based
RAW264.7 [2] = experiment: Cytotoxicity against mouse RAW 264.7 cells assessed as cell viability by MTT assay; format: cell-based
RAW264.7 [3] = experiment: Cytotoxicity against LPS-induced mouse RAW 264.7 cells assessed as cell viability measured by MTT assay; format: cell-based
RAW264.7 [4] = experiment: Antiinflammatory activity against mouse RAW264.7 cells assessed as inhibition of LPS-induced NO production at 10 uM preincubated for 1 hrs followed by LPS stimulation and measured after 24 hrs by Griess assay relative to control; format: functional; details: time 25 hrs
RAW264.7 [5] = experiment: Cytotoxicity against mouse RAW264.7 cells at 20 uM measured after 24 hrs; format: cell-based; details: raw264.7, 24 h
RAW264.7 [6] = experiment: Inhibition of LPS-induced NO release in mouse RAW264.7 cells preincubated for 1 hrs followed by LPS stimulation and measured after 24 hrs by Griess reagent based assay; format: functional, cell-based
[7] = biological target: T1, Nitric oxide synthase, inducible (Mus musculus, UniProt P29477); experiment: Inhibition of LPS induced NO-dependent iNOS activity in mouse RAW 264.7 cells preincubated for 1 hrs followed by LPS stimulation and measured after 24 hrs by Griess reagent based assay; format: cell-based, RAW264.7
T1 sequence (P29477 whole entry): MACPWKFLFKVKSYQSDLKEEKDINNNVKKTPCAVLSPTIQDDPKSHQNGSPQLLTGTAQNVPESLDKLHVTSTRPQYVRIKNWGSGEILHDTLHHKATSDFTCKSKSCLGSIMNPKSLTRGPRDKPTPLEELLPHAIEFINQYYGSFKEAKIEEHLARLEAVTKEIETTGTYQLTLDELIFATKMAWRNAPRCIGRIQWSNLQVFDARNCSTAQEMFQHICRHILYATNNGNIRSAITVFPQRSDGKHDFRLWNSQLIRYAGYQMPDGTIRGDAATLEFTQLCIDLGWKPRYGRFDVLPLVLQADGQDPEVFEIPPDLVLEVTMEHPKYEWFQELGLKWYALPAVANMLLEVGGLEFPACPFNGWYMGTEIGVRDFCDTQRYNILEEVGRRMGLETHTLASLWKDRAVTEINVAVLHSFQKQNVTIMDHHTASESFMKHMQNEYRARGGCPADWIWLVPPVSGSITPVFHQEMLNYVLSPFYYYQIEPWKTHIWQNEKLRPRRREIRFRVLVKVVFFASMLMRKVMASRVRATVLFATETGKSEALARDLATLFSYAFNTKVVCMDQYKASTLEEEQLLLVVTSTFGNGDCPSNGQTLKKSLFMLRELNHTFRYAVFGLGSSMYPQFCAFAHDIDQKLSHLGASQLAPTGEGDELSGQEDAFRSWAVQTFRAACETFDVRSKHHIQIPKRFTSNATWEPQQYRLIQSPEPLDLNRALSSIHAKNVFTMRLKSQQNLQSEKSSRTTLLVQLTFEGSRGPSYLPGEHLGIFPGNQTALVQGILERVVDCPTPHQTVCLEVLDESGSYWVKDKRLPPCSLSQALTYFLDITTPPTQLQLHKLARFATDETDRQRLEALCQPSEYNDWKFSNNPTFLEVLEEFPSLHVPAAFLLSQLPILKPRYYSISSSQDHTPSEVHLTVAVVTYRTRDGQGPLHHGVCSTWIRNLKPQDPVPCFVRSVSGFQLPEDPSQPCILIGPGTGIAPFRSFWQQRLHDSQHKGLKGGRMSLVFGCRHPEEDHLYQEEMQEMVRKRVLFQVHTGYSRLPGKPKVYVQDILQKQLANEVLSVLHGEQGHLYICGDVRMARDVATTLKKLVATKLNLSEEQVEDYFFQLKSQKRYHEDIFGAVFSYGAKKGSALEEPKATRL

L02 [8] = experiment: Antiinflammatory activity against human L02 assessed as inhibition of LPS-induced NO production preincubated for 1 hrs followed by LPS stimulation and measured after 24 hrs by Griess assay relative to control; format: functional, cell-based
[9] = Metabolic stability in human hepatocytes assessed as half life measured upto 120 mins by LC-MS/MS analysis; format: ADME, cell-based, Hepatocyte
[10] = Metabolic stability in rat hepatocytes assessed as half life measured upto 120 mins by LC-MS/MS analysis; format: ADME, cell-based, Hepatocyte
[11] = Metabolic stability in human hepatocytes assessed as clearance incubated up to 120 mins measured per million cells by LC-MS/MS analysis; format: ADME, cell-based, Hepatocyte; details: read-out: CLH
[12] = Metabolic stability in rat hepatocytes assessed as intrinsic clearance incubated up to 120 mins measured per million cells by LC-MS/MS analysis; format: ADME, cell-based, Hepatocyte; details: read-out: CLH
Cytochrome P450 1A2 = biological target: T2, Cytochrome P450 1A2 (Homo sapiens, UniProt P05177); experiment: Inhibition of CYP1A2 in human liver microsomes using Phenacetin as substrate measured after 20 mins by LC-MS/MS analysis; format: ADME
T2 sequence (P05177 whole entry): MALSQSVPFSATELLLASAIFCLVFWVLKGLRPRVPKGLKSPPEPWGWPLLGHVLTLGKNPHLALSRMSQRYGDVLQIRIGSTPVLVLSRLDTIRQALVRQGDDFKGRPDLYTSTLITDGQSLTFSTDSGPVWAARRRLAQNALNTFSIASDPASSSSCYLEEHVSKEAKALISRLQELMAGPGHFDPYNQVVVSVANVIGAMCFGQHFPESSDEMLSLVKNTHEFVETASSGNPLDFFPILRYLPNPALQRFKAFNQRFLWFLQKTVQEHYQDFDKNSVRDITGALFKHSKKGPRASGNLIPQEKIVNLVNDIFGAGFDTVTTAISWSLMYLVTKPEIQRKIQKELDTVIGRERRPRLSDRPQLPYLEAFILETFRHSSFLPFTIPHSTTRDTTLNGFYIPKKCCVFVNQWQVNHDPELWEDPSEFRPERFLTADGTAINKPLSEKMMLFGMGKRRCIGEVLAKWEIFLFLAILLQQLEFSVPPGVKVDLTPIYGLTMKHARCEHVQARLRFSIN

Compound | IC50 (L02 [1]) [µM] | IC50 (RAW264.7 [2]) [µM] | IC50 (RAW264.7 [3]) [µM] | inhibition at 10 µM (RAW264.7 [4]) [%] | Activity (RAW264.7 [5]) | IC50 (RAW264.7 [6]) [µM] | IC50 [7] [µM] | IC50 (L02 [8]) [µM] | half-life [9] [min] | half-life [10] [min] | hepatocyte CLint [11] [µL/min/1e6 cells] | hepatocyte CLint [12] [µL/min/1e6 cells] | IC50 (Cytochrome P450 1A2) [µM]
COc1ccc(Nc2nc(/C=C/c3cc(OC)c(OC)c(OC)c3)nc3ccsc23)cc1 | 279 | > 50 | > 50 | 52.5 | Non-Toxic | 10.7 | 5.12 | 279 | – | – | – | – | –
COc1cc(/C=C/c2nc(NC3CC3)c3sccc3n2)cc(OC)c1OC | 2360 | > 50 | > 50 | 90.7 | Non-Toxic | 6.03 | 4.32 | > 1000 | – | – | – | – | –
COc1ccc2[nH]c([S+]([O-])Cc3ncc(C)c(OC)c3C)nc2c1 (configuration not stated) [OMEPRAZOLE] | – | – | – | – | – | – | – | – | 28.2 | 13.5 | 24.6 | 51.4 | –
COc1cc(/C=C/c2nc(NCc3ccccc3)c3sccc3n2)cc(OC)c1OC | 1800 | > 50 | > 50 | 71.9 | Non-Toxic | 8.26 | 3.62 | > 1000 | – | – | – | – | –
COc1ccc(CNc2nc(/C=C/c3cc(OC)c(OC)c(OC)c3)nc3ccsc23)cc1 | 2050 | > 50 | > 50 | 73.7 | Non-Toxic | 7.54 | 3.26 | > 1000 | – | – | – | – | –
O=C(O)Cc1ccccc1Nc1c(Cl)cccc1Cl [DICLOFENAC] | – | – | – | – | – | – | – | – | 9.1 | 13.6 | 75.8 | 50.3 | –
COc1ccc2c(c1)[C@]13CCCC[C@@H]1[C@H](C2)N(C)CC3 [DEXTROMETHORPHAN] | – | – | – | – | – | – | – | – | 14.5 | 4.6 | 47.8 | 150 | –
O=c1cc(-c2ccccc2)oc2ccc3ccccc3c12 [BETA-NAPHTHOFLAVONE] | – | – | – | – | – | – | – | – | – | – | – | – | 0.0835
COc1cc(/C=C/c2nc(Nc3ccc(C(F)(F)F)cc3)c3sccc3n2)cc(OC)c1OC | 436 | > 50 | > 50 | 55.4 | Non-Toxic | 9.36 | 4.2 | 436 | – | – | – | – | –
C[C@@H]1C[C@H]2[C@@H]3CCC4=CC(=O)C=C[C@]4(C)[C@@]3(F)[C@@H](O)C[C@]2(C)[C@@]1(O)C(=O)CO [DEXAMETHASONE] | 4620 | > 50 | > 50 | 51.8 | – | 8.71 | > 10 | 4620 | – | – | – | – | –
COc1cc(/C=C/c2nc(Nc3ccc(O)cc3)c3sccc3n2)cc(OC)c1OC | 2300 | > 50 | > 50 | 97.7 | Non-Toxic | 4.07 | 1.89 | > 1000 | – | – | – | – | –
COc1cc(/C=C/c2nc(NCc3ccc(Cl)cc3)c3sccc3n2)cc(OC)c1OC | 4320 | > 50 | > 50 | 65.5 | Non-Toxic | 9.05 | 4.23 | > 1000 | – | – | – | – | –
Cc1ncc2n1-c1ccc(Cl)cc1C(c1ccccc1F)=NC2 [MIDAZOLAM] | – | – | – | – | – | – | – | – | 16.3 | 3.9 | 42.6 | 176 | –
COc1cc(/C=C/c2nc(NCc3ccncc3)c3sccc3n2)cc(OC)c1OC | 374 | > 50 | > 50 | 76 | Non-Toxic | 6.35 | 3.12 | 374 | – | – | – | – | –
CCOc1ccc(NC(C)=O)cc1 [PHENACETIN] | – | – | – | – | – | – | – | – | 43.8 | 32.6 | 15.8 | 21.3 | –
